Results from US7576125B2, “Melanogenesis inhibitor and skin preparation containing the same” (Takasago International Corporation, priority 2003, dated 2009).

Columns and labels:
Type in all cases: cell-based
B16 melanoma cells [1] = experiment: Melanogenesis inhibition test (visual evaluation) using B16 melanoma cells; details: 3 days culture
Description: The following tests a) and b) were conducted on the compounds shown in Synthesis Examples and Comparative Synthesis Examples to examine their melanogenesis-inhibiting effects. • a) Cytotoxicity test (using B16 melonoma cells) • b) Melanogenesis inhibition test (visual evaluation) (using B16 melonoma cells) Evaluation Methods
8×10^4 B16 melanoma cells were inoculated in a plastic-made culture flask (25 cm^2). The cells were cultured in a 10% serum-containing DMEN medium (produced by Nissui Pharmaceutical co., Ltd., trade name) in the presence of 5% carbon dioxide at 37° C. 3 days later, a test sample diluted with ethanol was added thereto, and culture was conducted for 3 days. After the completion of the culture, the medium was removed and the flask contents were washed with a phosphate buffer solution (hereinafter referred t as PBS). The cells were peeled from the flask inner wall using a medium containing trypsin and EDTA (ethylenediaminetetraacetic acid). The resulting cells suspension was centrifuged to recover cells. Part of the cells was taken and the number of cells was measured using a Coulter counter. […] A melanogenesis inhibition test was carried out in this concentration range. The cells obtained were washed once with PBS and then the whiteness of the precipitate was rated visually based on the following evaluation standard.
Evaluation Standard • −: Same as the solvent control (black) • +−: Slightly different from the solvent control (black-gray) • +: Clearly different from the solvent control (gray) • ++: Coloring of cells is very low (gray-white) • +++: No coloring of cells (white)

[2] = system: tyrosinase biosynthesis in B16 melanoma cells; experiment: Tyrosinase biosynthesis hindrance test (intra-cell tyrosinase activity); details: 2 days
Description: A tyrosinase activity hindrance test and a tyrosinase biosynthesis hindrance test were conducted according to the following test methods to examine the mechanism for hindrance of melanin denovo synthesis. […] In this method, tyrosinase biosynthesis hindrance is indicated indirectly by measuring intra-cell tyrosinase activity. 100 μl of a suspension containing 3×10^5/ml of B16 melanoma cells was inoculated into a 96-well plate, and culture was made at 37° C. overnight in 5% CO2. Next day, the medium was changed with 200 μl of a sample-containing culture medium, and culture was made for 2 days under the same conditions. Thereafter, the supernatant liquid was removed and the residue was washed with 200 μl of a phosphate buffer solution twice. Then, 100 μl of 1% Triton X100 was added and the mixture was allowed to stand at room temperature for 1 hour, followed by gentle shaking. Next, 100 μl of 1% DOPA was added. Measurement was made in the same manner as in the above test method for tyrosinase activity hindrance.

B16 melanoma cells [3] = experiment: Cell propagation rate / cytotoxicity by MTT method on parallel plate

## CCCCOCc1ccc2c(c1)OCO2 [Synthesis Example 2, piperonyl n-butyl ether]
B16 melanoma cells [1]; Concentration 12.5 μg/ml
  whiteness of the cell precipitate rated visually (melanogenesis inhibition): ++

## COCc1ccc2c(c1)OCO2 [Synthesis Example 3, Piperonyl methyl ether]
B16 melanoma cells [1]; Concentration 12.5 μg/ml
  whiteness of the cell precipitate rated visually (melanogenesis inhibition): −

## CCOCc1ccc2c(c1)OCO2 [Synthesis Example 4, Piperonyl ethyl ether]
B16 melanoma cells [1]; Concentration 12.5 μg/ml
  whiteness of the cell precipitate rated visually (melanogenesis inhibition): −

## CCCOCc1ccc2c(c1)OCO2 [Synthesis Example 5, Piperonyl n-propyl ether]
B16 melanoma cells [1]; Concentration 12.5 μg/ml
  whiteness of the cell precipitate rated visually (melanogenesis inhibition): +

## CC(C)COCc1ccc2c(c1)OCO2 [Synthesis Example 6, Piperonyl isobutyl ether]
B16 melanoma cells [1]; Concentration 12.5 μg/ml
  whiteness of the cell precipitate rated visually (melanogenesis inhibition): ++

## CC(C)CCOCc1ccc2c(c1)OCO2 [Synthesis Example 7, Piperonyl isoamyl ether]
B16 melanoma cells [1]; Concentration 12.5 μg/ml
  whiteness of the cell precipitate rated visually (melanogenesis inhibition): ++

## CCCCCCOCc1ccc2c(c1)OCO2 [Synthesis Example 8, Piperonyl n-hexyl ether]
B16 melanoma cells [1]; Concentration 12.5 μg/ml
  whiteness of the cell precipitate rated visually (melanogenesis inhibition): ++

## CCCCCCCCOCc1ccc2c(c1)OCO2 [Synthesis Example 9, Piperonyl n-octyl ether]
B16 melanoma cells [1]; Concentration 6.3 μg/ml
  whiteness of the cell precipitate rated visually (melanogenesis inhibition): +
B16 melanoma cells [1]; Concentration 12.5 μg/ml
  whiteness of the cell precipitate rated visually (melanogenesis inhibition): +

## O=c1cc(CO)occ1O [kojic acid]
[2]; 50 ppm
  Tyrosinase biosynthesis hindrance, Hindrance %: 21.0%
[2]; 100 ppm
  Tyrosinase biosynthesis hindrance, Hindrance %: 21.0%
[2]; 200 ppm
  Tyrosinase biosynthesis hindrance, Hindrance %: 21.0%
B16 melanoma cells [3]; 50 ppm
  Cell propagation rate %: 100.8%
B16 melanoma cells [3]; 100 ppm
  Cell propagation rate %: 97.3%
B16 melanoma cells [3]; 200 ppm
  Cell propagation rate %: 96.2%
